Laboratory results: patent publication US20230323294A1, “DIFFERENTIATION OF CORTICAL NEURONS FROM HUMAN PLURIPOTENT STEM CELLS” (priority 2016, published 2023)

What was measured:
Format in all cases: cell-based, human
sodium channel = system: sodium channel
AMPA receptors = test: Spontaneous excitatory postsynaptic currents (sEPSCs) recording; details: P1S5D+none conditions at day 40
hPSCs [1] = test: Proliferation (pH3) and cell death (cleaved Caspase 3) after P/S/D treatment; details: for cell proliferation (phospho-Histone 3): as early as 24 hrs after P/S treatment (day 3)
Text: (a) Percentage of mitotic cells expressing phospho-histone 3 (pH3) among total cells at one day after P/S/D treatment (day 3 of differentiation). (b) Percentage of apoptotic cells expressing cleaved caspase 3 (CC3) among total cells at one day after P/S/D treatment (day 3 of differentiation). The conditions highlighted in the dashed line boxes in a,b are the P1 dosage groups aligned by ascending order of S concentration. For a,b, N=4 randomly selected photo frames from each of the 2 independent batches of cell cultures. Statistical analysis was carried out using the Dunnett's multiple comparison test to compare each dosage with LSB+X at day 3 of differentiation. […] (c) Summary of grouped results in a following the order of increasing concentration of P, or increasing concentration of S (d). (e) Summary of grouped results in b following the order of increasing concentration of P, or increasing concentration of S (f). […] Black dots represent values from quantification of individual photos frames. […]
Increased total neuron yields were obtained when lower PD concentrations were combined with SU exposure in an effort to balance neuronal induction efficiency and overall cell toxicity. […] To understand whether reduced yield is due to rapid cell cycle exit or direct toxicity, we measured phospho-Histone 3 (pH3) and cleaved Caspase 3 (CC3) as markers of cell proliferation and death, respectively. […]
EdU was added to the cultures at 5 μM for a window of 48 hrs each starting at various time points of differentiation (day 8, 13, 18, 23, 28, 33), and the cells were fixed at day 40 with 4% paraformaldehyde for 20 mins. EdU was detected with the Click-iT EdU Imaging Kit (Invitrogen) according to the specifications of the manufacturer. Quantification of EdU positive and cortical layer marker positive neurons in the EdU labeling experiments, and the quantification of marker positive neurons and total cells in the long-term culture was carried out using ImageJ with ITCN plugin for nuclei quantification, combined with manual counting. […] All quantification results were plotted in Prism (version 6.0, GraphPad).

hPSCs [2] = test: Neuronal induction efficiency, intracellular flow cytometry for TUJ1; details: day 13
hPSCs [3] = test: Total cell / neuron yield in culture (FIG. 1G)
Text: FIGS. 1A-1I depict illustrations, images and graphs showing the rapid induction of cortical neurons from human pluripotent stem cells using a combinatorial small molecule-based protocol. FIG. 1A is a schematic illustration of the pathway manipulations to generate neural crest versus forebrain fates and neural precursor versus accelerated neuronal fates. Protocols for the derivation of SOX10+ neural crest precursor, PAX6+ CNS precursors and BRN3A/ISL1+sensory neurons have been reported while the current invention is focused on a strategy for the rapid induction of cortical neurons. […] FIG. 1C depicts graphs of the time-course quantitative analyses of CNS (PAX6::H2B-GFP, left), NC (SOX10::GFP, middle) and placode (SIX1::H2B-GFP, right) induction under the various protocols. […] FIG. 1F is a graph showing the quantification of the TUJ1 data from FIGS. 1D and 1E at day 13 of differentiation by intracellular flow. […] FIG. 1G depicts graphs of the P and S single and combinatorial dose response analyses based on quantification of the percentages of NESTIN+ and TUJ1+ cells by intracellular flow cytometry (upper), and an estimate of the total neurons in culture per cm^2 (for every hPSC plated at day 0 under P1S5D and P8S10D conditions, ˜0.7 and 0.2 neurons were obtained respectively at day 13). […]

hPSCs [4] = test: qRT-PCR gene expression analysis during differentiation; details: forebrain marker, day 13
Description: Cells were lysed with Trizol Reagent (Life Technology) and stored in -20° C. Total RNA was extracted using phenol/chloroform and isopropanol precipitation, and dissolved in ddH2O. cDNA was made using the QuantiTech Reverse Transcription Kit (Qiagen). Quantitative RT-PCR was performed using the Mastercycler […]×2 (Eppendorf), and GAPDH was used as the housekeeping gene control for normalization. Delta Delta Ct and fold changes were calculated and results were plotted in Prism (version 6.0, GraphPad).

hPSC-derived neurons = test: Survival of cultures maintained in P/S/D in the final differentiation step; details: 3 uM
[5] = additional treatment on top of PD and SU

Compound: NC1=N[C@H](O)[C@H]2[C@H]3O[C@]4(O)O[C@@H]([C@@H](O)[C@@]2(N1)[C@@H]4O)[C@]3(O)CO [Tetrodotoxin]
- voltage-dependent sodium channel responses (sodium channel): blocked

Compound: NS(=O)(=O)c1cccc2c1c([N+](=O)[O-])cc1nc(O)c(O)nc12 [NBQX]
- spontaneous excitatory postsynaptic currents (sEPSCs) (AMPA receptors): inhibited

Compound: Cc1c[nH]c(/C=C2\C(=O)Nc3ccccc32)c1CCC(=O)O [SU5402, 2-[(1,2-Dihydro-2-oxo-3H-indol-3-ylidene)methyl]-4-methyl-1H-pyrrole-3-pr-opanoic acid]
- cell proliferation (phospho-Histone 3) (hPSCs [1]): reduced cell proliferation
- cell death (cleaved Caspase 3) (hPSCs [1]; one day after P/S/D treatment (day 3)): observed only at high doses

Compound: O=C(NOC[C@H](O)CO)c1ccc(F)c(F)c1Nc1ccc(I)cc1F [PD0325901, N-(2,3-dihydroxy-propoxy)-3,4-difluoro-2-(2-fluoro-4-iodo-phenylamino)-benzamide]
- TUJ1+% (hPSCs [2]; added to LSB+X, at high concentrations): > 50%
- yield in total cell numbers (hPSCs [3]; at high concentrations, suggesting toxicity): low yield in total cell numbers
- cell proliferation (phospho-Histone 3) (hPSCs [1]): reduced cell proliferation
- FOXG1 induction (hPSCs [4]): reduced the efficiency of FOXG1 induction

Compound: Cc1c[nH]c(-c2cnc(NCCNc3ccc(C#N)cn3)nc2-c2ccc(Cl)cc2Cl)n1 [CHIR]
- effect on survival of cultures maintained in P/S/D (hPSC-derived neurons): strong pro-survival effect

Compound: C[C@H](NC(=O)Cc1cc(F)cc(F)c1)C(=O)N[C@H](C(=O)OC(C)(C)C)c1ccccc1 [DAPT]
- efficiency of neuronal induction (hPSCs [2]; [5]): further increased
- effect on overall neuron yield (hPSCs [3]; [5]): did not negatively affect overall neuron yield
